pEC50: −log10 of the molar value. Bounds are passed on as bounds.

Results on ten compounds are retold here after patent US9790215B2 (FLATLEY DISCOVERY LAB, LLC, priority 2013, dated 2017).

The assay concerns the target T1, human ΔF508-CFTR (Homo sapiens, UniProt P13569, DEL508-508).
T1 construct: expressed in transfected cells
Kind of assay: CFTR-YFP High Throughput Assay (YFP halide flux in FRT cells). It is filed as cell-based. The note with it: FRT cells expressing human ΔF508-CFTR and YFP; for pEC50: forskolin stimulated. The method in brief:
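FRT cells stably co-expressing human ΔF508-CFTR and halide-sensitive YFP-H148Q/I152L were treated with compound […] for 24–26 h at 37 °C (corrector mode), washed, then stimulated with 20 μM forskolin plus 30 μM potentiator P3 for 60–120 min at room temperature. Iodide-induced YFP quench (ex 500/em 540 nm) rates came from least-squares fitting.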

T1 sequence (P13569 with tags, fused parts or gaps DEL508-508): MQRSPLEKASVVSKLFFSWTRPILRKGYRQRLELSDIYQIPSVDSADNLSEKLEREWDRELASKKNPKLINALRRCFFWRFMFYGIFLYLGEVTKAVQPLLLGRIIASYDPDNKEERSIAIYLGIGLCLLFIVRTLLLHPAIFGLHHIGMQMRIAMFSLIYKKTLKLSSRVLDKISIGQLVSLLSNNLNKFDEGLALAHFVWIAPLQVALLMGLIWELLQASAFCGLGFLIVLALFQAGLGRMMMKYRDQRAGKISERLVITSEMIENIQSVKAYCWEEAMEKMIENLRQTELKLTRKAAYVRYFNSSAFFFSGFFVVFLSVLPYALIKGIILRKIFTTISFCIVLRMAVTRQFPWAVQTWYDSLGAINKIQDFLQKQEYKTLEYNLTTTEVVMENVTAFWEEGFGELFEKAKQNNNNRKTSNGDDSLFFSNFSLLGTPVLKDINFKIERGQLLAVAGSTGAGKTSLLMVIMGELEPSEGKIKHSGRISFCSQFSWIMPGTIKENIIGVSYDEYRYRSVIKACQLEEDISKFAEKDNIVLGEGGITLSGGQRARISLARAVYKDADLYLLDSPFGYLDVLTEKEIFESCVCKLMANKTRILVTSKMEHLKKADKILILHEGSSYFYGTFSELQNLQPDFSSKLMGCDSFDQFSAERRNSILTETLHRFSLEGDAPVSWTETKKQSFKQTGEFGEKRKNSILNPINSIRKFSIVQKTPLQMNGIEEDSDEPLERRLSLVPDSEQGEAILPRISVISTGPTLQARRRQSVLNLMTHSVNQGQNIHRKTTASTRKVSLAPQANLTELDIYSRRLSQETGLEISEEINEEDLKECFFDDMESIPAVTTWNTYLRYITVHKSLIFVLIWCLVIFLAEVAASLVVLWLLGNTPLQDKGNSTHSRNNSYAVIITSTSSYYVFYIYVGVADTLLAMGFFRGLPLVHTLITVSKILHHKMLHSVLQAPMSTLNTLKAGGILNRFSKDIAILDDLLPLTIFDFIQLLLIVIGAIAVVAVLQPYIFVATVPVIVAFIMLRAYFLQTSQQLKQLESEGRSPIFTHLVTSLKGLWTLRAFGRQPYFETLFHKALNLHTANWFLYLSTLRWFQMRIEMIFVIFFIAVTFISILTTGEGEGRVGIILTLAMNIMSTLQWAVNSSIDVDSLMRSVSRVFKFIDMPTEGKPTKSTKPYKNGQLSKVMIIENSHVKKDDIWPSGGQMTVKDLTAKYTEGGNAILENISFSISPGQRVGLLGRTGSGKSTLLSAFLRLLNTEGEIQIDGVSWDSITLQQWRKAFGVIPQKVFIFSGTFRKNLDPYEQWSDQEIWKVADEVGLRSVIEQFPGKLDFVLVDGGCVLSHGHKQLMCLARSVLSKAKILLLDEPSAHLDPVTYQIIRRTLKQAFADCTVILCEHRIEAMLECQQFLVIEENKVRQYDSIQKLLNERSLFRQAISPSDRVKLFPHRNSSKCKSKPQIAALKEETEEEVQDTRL

In general, pEC50 refers to −log10 of the EC50, conventionally taken in molar units. As for `CCN(C(=O)c1nn(-c2ccc(C)cc2)c(=O)c2c1c1ccccc1n2C(C)C)c1ccccc1` [Example 152, N-ethyl-5-isopropyl-4-oxo-N-phenyl-3-(p-tolyl)-4,5-dihydro-3H-pyridazino[4,5-b]indole-1-carboxamide], the pEC50 was less than 4.70.
The same measure, in the same setting: for `CCN(C(=O)c1nn(-c2ccc(C)cc2)c(=O)c2c1c1ccccc1n2Cc1ccccn1)c1ccccc1` [Example 153, N-ethyl-4-oxo-N-phenyl-5-(pyridin-2-ylmethyl)-3-(p-tolyl)-4,5-dihydro-3H-pyridazino[4,5-b]indole-1-carboxamide] the value was less than 4.70.
On the same count and under the same terms, for `CCN(C(=O)Cn1nc(Cc2cccnc2)c2c3ccccc3n(C)c2c1=O)c1ccc2c(c1)OC(F)(F)O2` [Example 157, N-(2,2-difluorobenzo[d][1,3]dioxol-5-yl)-N-ethyl-2-(5-methyl-4-oxo-1-(pyridin-3-ylmethyl)-4,5-dihydro-3H-pyridazino[4,5-b]indol-3-yl)acetamide] the value was less than 4.70.
On to “N-(2,2-difluorobenzo[d][1,3]dioxol-5-yl)-N-ethyl-2-(1-oxo-4-(4-sulfamoyl-phenyl)phthalazin-2(1H)-yl)acetamide [Example 17]”, for which the “% Efficacy (Emax normalized to the positive control)” value is “++ (a range of 80%-30%)” and the pEC50 was greater than 5.00.
Take “N-(2,2-difluorobenzo[d][1,3]dioxol-5-yl)-N-ethyl-2-(1-oxo-4-(pyridin-3-yl)phthalazin-2(1H)-yl)acetamide [Example 23]”: the “% Efficacy (Emax normalized to the positive control)” value is “++ (a range of 80%-30%)” and the pEC50 is 4.70 to 5.00.
Take “N-(2,2-difluorobenzo[d][1,3]dioxol-5-yl)-N-ethyl-2-(4-(3-fluorophenyl)-1-oxophthalazin-2(1H)-yl)acetamide [Example 22]”: the “% Efficacy (Emax normalized to the positive control)” value is “++ (a range of 80%-30%)” and the negative logarithm of the EC50 (pEC50) is greater than 5.00.
In the case of “N-ethyl-N-(4-ethylphenyl)-2-(1-oxo-4-(4-sulfamoylphenyl)phthalazin-2(1H)-yl)acetamide [Example 12]”, the “% Efficacy (Emax normalized to the positive control)” value is on record as “++ (a range of 80%-30%)” and the pEC50 is less than 4.70.
Consider “N-ethyl-N-(4-ethylphenyl)-2-(4-(3-hydroxyphenyl)-1-oxophthalazin-2(1H)-yl)acetamide [Example 8]”, for which the “% Efficacy (Emax normalized to the positive control)” value was “++ (a range of 80%-30%)” and the pEC50 was greater than 5.00.
On to “N-ethyl-N-(4-ethylphenyl)-2-(4-(4-(methylsulfonyl)phenyl)-1-oxophthalazin-2(1H)-yl)acetamide [Example 15]”, for which the “% Efficacy (Emax normalized to the positive control)” value is reported as “+ (a range of 30%-10%)” and the pEC50 is less than 4.70.
For the compound “methyl 4-(3-(2-(ethyl(4-ethylphenyl)amino)-2-oxoethyl)-4-oxo-3,4-dihydrophthalazin-1-yl)benzoate [Example 14]”, the “% Efficacy (Emax normalized to the positive control)” value is reported as “++ (a range of 80%-30%)” and the pEC50 is less than 4.70.
